These results are taken from patent US20240294488A1, “ISOTOPOLOGES, SALTS, CRYSTALLINE FORMS, STEREOISOMERS, OF METHYLONE AND ETHYLONE AND METHODS OF USE THEREOF” (Terran Biosciences Inc., priority 2021, published 2024).

The data set can be described thus: Plasma and brain concentration at end of zero maze study. It counts as in vivo, rat. The settings on record: end of zero maze study, 5, 15, 30 mg/kg ip, FIG. 68 and FIG. 69. On the procedure:
Terminal sampling. At the end of the study, terminal blood was collected from 2 of the vehicle treated rats (>5 mL) and from all methylone HCl treated rats (500 uL) by CP under CO2. Blood samples were placed into Eppendorf tubes on ice containing 22 μL/mL blood (vehicle treated) or 11 μL EDTA (93 mg/mL) (Methylone HCl treated rats) and gently mixed. After no longer than 30 min, blood samples were centrifuged at 10,000 rpm×3 min and plasma samples (>2 mL (vehicle) or 2×100 μL (Methylone HCl treated) placed into Eppendorf tubes (Vehicle) or 96 well plates on dry ice. Immediately after blood sampling, brains were excised, rinsed in saline, blotted, weighed and snap-frozen in liquid N2. All samples were stored at −20° C. until dispatched on dry ice for analysis.
Terminal sampling. At the end of the study, terminal blood was collected from 2 of the vehicle treated rats (>5 mL) and from all S-methylone HCl treated rats (500 uL) by CP under CO2. Blood samples were placed into Eppendorf tubes on ice containing 22 μL/mL blood (vehicle treated) or 11 μL EDTA (93 mg/mL) (S-methylone HCl treated rats) and gently mixed. […]

Counter-ions that a name gives are not always drawn.

Turning to `CNC(C)C(=O)c1ccc2c(c1)OCO2` (racemic) [(rac)-Methylone Hydrochloride, 3,4-methylenedioxy-N-methylcathinone hydrochloride], the “concentration in plasma and brain” value is “increased in both brain and plasma at the higher doses”.
